This is an account of results in patent US10344026B2, “Compositions and methods of targeting mutant K-ras” (NANTBIO, INC., priority 2017, dated 2019).

Holding throughout (format): cell-based
Assay [1] deals with U87-MG (K-Ras wild type cell line). Nature of the assay: Viability assay (CellTiterBlue, 72 hr) U87-MG. The following applies: Homo sapiens, U-87 MG, GI50, CellTiterBlue, U87-MG K-Ras wild-type. In outline:
(§1)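 GI50 calculation uses a window set by DMSO-treated wells (100% viability) and 100 uM tamoxifen (0%). Cells (1000/well) sit 18 hr at 37 °C, receive compound for 72 hr in 0.5% DMSO, then get CellTiterBlue for 3 hr before reading at Ex550/Em590.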
In general terms: Resazurin is reduced to fluorescent resorufin, in cell work by metabolically active cells.

Assay [2] relates to phospho-ERK in HCC827 (Wild-type). Nature of the assay: In-Cell Western phospho-ERK, HCC827. The following applies: Homo sapiens, 1 h; HCC827, one hour treatment; read-out: In-Cell Western HCC827 (Wild-type) Erk (P). An outline of the steps: (§2)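 Cells were seeded at 3000 cells/well, incubated 18 hr at 37° C, then treated with compound for 1 hr (0.5% DMSO final). After fixation, permeabilization and blocking, phospho-Akt or phospho-ERK antibodies were applied overnight at 4° C, followed by secondary antibody; cellular fluorescence was imaged and EC50 calculated.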

The test system of assay [3] is phospho-Akt in HCC827 (Wild-type). Nature of the assay: In-Cell Western phospho-Akt, HCC827. As to conditions: Homo sapiens, 1 h; HCC827, one hour treatment; read-out: In-Cell Western HCC827 (Wild-type) Akt (P). In outline: as §2
The test system of the next assay is Panc10.05-G12D. Nature of the assay: Viability assay (CellTiterBlue, 72 hr) Panc10.05. The following applies: Homo sapiens, Panc1005, GI50, CellTiterBlue, Panc10.05 K-Ras G12D, read-out: 72 hr Cell Viability Panc10.05 (G12D). In outline:
as §1

In assay [4] the test system is phospho-ERK in A375 (Wild-type). Nature of the assay: In-Cell Western phospho-ERK, A375. The following applies: Homo sapiens, A-375, 1 h; A375, one hour treatment; read-out: In-Cell Western A375 (Wild-type) Erk (P). An outline of the steps: as §2
Another assay deals with T1, wild type K-Ras (Homo sapiens, UniProt P01116).
T1 construct: expressed in transfected cells; host or cells: 293H cells
Nature of the assay: G-LISA Ras activation, 293H cells transfected with Ras wild-type, EGF stimulated. As to conditions: compound 1 hour, then 100 ng/ml EGF 2 minutes. In outline:
(§3)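 Mutant or wild-type Ras was expressed transiently in 293H cells, which were incubated 1 hour with compound across 3.125-25 μM. G-LISA on cold lysates gave Ras activation, wild-type cells having first been EGF-stimulated (100 ng/ml, 2 min).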

Assay [5] relates to HCC827 (K-Ras wild type cell line). Nature of the assay: Viability assay (CellTiterBlue, 72 hr) HCC827. The following applies: Homo sapiens, GI50, CellTiterBlue, HCC827 K-Ras wild-type. An outline of the steps:
as §1

Assay [6] concerns phospho-ERK in Panc1 (G12D). Nature of the assay: In-Cell Western phospho-ERK, Panc1. As to conditions: Homo sapiens, PANC-1, 1 h; Panc1, one hour treatment; read-out: In-Cell Western Panc1 (G12D) Erk (P). An outline of the steps: as §2
Assay [7] deals with phospho-ERK in Panc10.05 (G12D). Nature of the assay: In-Cell Western phospho-ERK, Panc10.05. As to conditions: Homo sapiens, Panc1005, 1 h; Panc10.05, one hour treatment; read-out: In-Cell Western Panc10.05 (G12D) Erk (P). An outline of the steps:
as §2

The subject of assay [8] is phospho-Akt in A375 (Wild-type). Nature of the assay: In-Cell Western phospho-Akt, A375. The following applies: Homo sapiens, A-375, 1 h; A375, one hour treatment; read-out: In-Cell Western A375 (Wild-type) Akt (P). In outline: as §2
The subject of assay [9] is phospho-Akt in Panc10.05 (G12D). Nature of the assay: In-Cell Western phospho-Akt, Panc10.05. As to conditions: Homo sapiens, Panc1005, 1 h; Panc10.05, one hour treatment; read-out: In-Cell Western Panc10.05 (G12D) Akt (P). An outline of the steps: as §2
Another assay relates to Panc1-G12D. Nature of the assay: Viability assay (CellTiterBlue, 72 hr) Panc1. As to conditions: Homo sapiens, PANC-1, GI50, CellTiterBlue, Panc1 K-Ras G12D, read-out: 72 hr Cell Viability Panc1 (G12D). In outline: as §1
In the next assay the test system is HCT116-G31D. Nature of the assay: Viability assay (CellTiterBlue, 72 hr) HCT116. As to conditions: Homo sapiens, HCT-116, GI50, CellTiterBlue, HCT116 K-Ras G13D, read-out: 72 hr Cell Viability HCT116 (G13D). An outline of the steps:
as §1

The subject of assay [10] is Ishikawa (K-Ras wild type cell line). Nature of the assay: Viability assay (CellTiterBlue, 72 hr) Ishikawa. The following applies: Homo sapiens, GI50, CellTiterBlue, Ishikawa K-Ras wild-type. An outline of the steps:
as §1

The next assay has as its target T2, K-Ras G12D (Homo sapiens, UniProt P01116, G12D).
T2 construct: expressed in transfected cells; host or cells: 293H cells
Nature of the assay: G-LISA Ras activation, 293H cells transfected with G12D mutant. As to conditions: compound 1 hour. An outline of the steps: as §3

The test system of assay [11] is A375 (K-Ras wild type cell line). Nature of the assay: Viability assay (CellTiterBlue, 72 hr) A375. As to conditions: Homo sapiens, A-375, GI50, CellTiterBlue. An outline of the steps:
as §1

Assay [12] has as its system phospho-Akt in Panc1 (G12D). Nature of the assay: In-Cell Western phospho-Akt, Panc1. The following applies: Homo sapiens, PANC-1, 1 h; Panc1, one hour treatment; read-out: In-Cell Western Panc1 (G12D) Akt (P). An outline of the steps: as §2

T2 sequence (P01116 whole entry G12D): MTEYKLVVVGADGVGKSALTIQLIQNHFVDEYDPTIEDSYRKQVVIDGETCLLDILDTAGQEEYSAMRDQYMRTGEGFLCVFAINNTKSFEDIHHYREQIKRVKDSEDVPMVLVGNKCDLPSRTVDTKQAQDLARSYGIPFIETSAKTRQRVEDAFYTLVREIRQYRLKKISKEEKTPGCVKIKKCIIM
T1 sequence (P01116 whole entry): as the sequence (P01116 whole entry G12D) above, with D12G counted along it

Turning to `Cc1nn(C(C)C)cc1C(=O)Nc1nc(-c2ccc3c(c2)CCC(=O)N3Cc2cccnc2)cs1` [Compound 116, 1-isopropyl-3-methyl-N-(4-(2-oxo-1-(pyridin-3-ylmethyl)-1,2,3,4-tetrahydroquinolin-6-yl)thiazol-2-yl)-1-pyrazole-4-carboxamide], the IC50 was above 25 µM in assay [1]; 1.2 µM in the assay with Panc10.05-G12D; 6.1 µM against wild type K-Ras; 4 µM in assay [5]; 3 µM in the assay on Panc1-G12D; above 25 µM in the assay with HCT116-G31D. Besides, the IC50 came out at 21 µM in assay [10], 2.5 µM against K-Ras G12D and 12 µM in [11]. Further, the EC50 in assay [2] is 3 µM; in assay [3], above 25 µM; in [4] it was 12 µM; in assay [6] it was 3 µM; in assay [7], 0.745 µM; in [8], above 25 µM. The results for the EC50 in assay [9] and in assay [12] were 2 µM and 22 µM, respectively.
Turning to `Cc1nn(C(C)(C)C)c(C)c1C(=O)Nc1nc(-c2ccc3c(c2)CCC(=O)N3)cs1` [Compound 57, 1-(tert-butyl)-3,5-dimethyl-N-(4-(2-oxo-1,2,3,4-tetrahydroquinolin-6-yl)thiazol-2-yl)-1H-pyrazole-4-carboxamide], the IC50 is above 25 µM in assay [1]; 8 µM in the assay on Panc10.05-G12D; 30 µM against wild type K-Ras; above 25 µM in [5]; above 25 µM with Panc1-G12D; above 25 µM in the assay with HCT116-G31D. In addition, the results for the IC50 (in assay [10]; on K-Ras G12D; in assay [11]) were above 25 µM, 9.4 µM and 27 µM, respectively. The EC50 is above 25 µM in assay [2]; above 25 µM in assay [3]; above 25 µM in assay [4]; 26 µM in assay [6]; 6 µM in [7]; above 25 µM in assay [8]. The EC50 in assay [9] and in assay [12] was above 25 µM in each case.
For `CCn1nc(C)c(C(=O)Nc2nc(-c3ccc4c(c3)CCC(=O)N4CCOC)cs2)c1C` [Compound 119, 1-ethyl-N-(4-(1-(2-methoxyethyl)-2-oxo-1,2,3,4-tetrahydroquinolin-6-yl)thiazol-2-yl)-3,5-dimethyl-1H-pyrazole-4-carboxamide], the IC50 in assay [1] came to 6 µM; in the assay with Panc10.05-G12D it was 0.71 µM; against wild type K-Ras, 5.4 µM; in assay [5], 2 µM; with Panc1-G12D it was 2 µM; in the assay on HCT116-G31D, 16 µM. Further, the IC50 is 3 µM in [10], 2.6 µM against K-Ras G12D and 8 µM in assay [11]. Also, the EC50 is 1.1 µM in assay [2]; above 25 µM in [3]; 8 µM in [4]; 3 µM in assay [6]; 0.759 µM in [7]; 12 µM in assay [8]. Besides, the EC50 was 1.5 µM in [9] and 19 µM in assay [12].
In the case of `COCCN1C(=O)CCc2cc(-c3csc(NC(=O)c4c(C)nn(C)c4C)n3)ccc21` [Compound 120, N-(4-(1-(2-methoxyethyl)-2-oxo-1,2,3,4-tetrahydroquinoinolin-6-yl)thiazol-2-yl)-1,3,5-trimethyl-1H-pyrazole-4-carboxamide], the IC50 in [1] is 13 µM; in the assay on Panc10.05-G12D, 0.802 µM; against wild type K-Ras it was 11.9 µM; in assay [5], 4 µM; in the assay on Panc1-G12D it was 4 µM; in the assay on HCT116-G31D, above 25 µM. The IC50 was 10 µM in [10], 3.4 µM on K-Ras G12D and 20 µM in [11]. The EC50 was 3 µM in [2]; above 25 µM in assay [3]; 24 µM in assay [4]; 5 µM in assay [6]; 1.2 µM in assay [7]; above 25 µM in [8]. Also, the figures for the EC50 in assay [9] and in [12] were 5 µM and 26 µM, respectively.
Take `Cc1nn(Cc2ccccc2)c(C)c1C(=O)Nc1nc(-c2ccc3c(c2)CCC(=O)N3)cs1` [Compound 56, 1-benzyl-3,5-dimethyl-N-(4-(2-oxo-1,2,3,4-tetrahydroquinolin-6-yl)thiazol-2-yl)-1H-pyrazole-4-carboxamide]: the IC50 was determined as 12 µM in assay [1]; 7 µM in the assay on Panc10.05-G12D; 19.2 µM at wild type K-Ras; 7 µM in assay [5]; 9 µM with Panc1-G12D; 6 µM with HCT116-G31D. Moreover, the IC50 came to 7 µM in [10], 6.6 µM at K-Ras G12D and 4 µM in assay [11]. In addition, the EC50 is 9 µM in assay [2]; above 25 µM in assay [3]; 16 µM in assay [4]; 3 µM in assay [6]; 3 µM in [7]; above 25 µM in assay [8]. For the same molecule, the EC50 came to 21 µM in assay [9] and 27 µM in assay [12].
In the case of `CCn1cc(C(=O)Nc2nc(-c3ccc4c(c3)CCC(=O)N4Cc3cccnc3)cs2)c(C)n1` [Compound 115, 1-ethyl-3-methyl-N-(4-(2-oxo-1-(pyridin-3-ylmethyl)-1,2,3,4-tetrahydroquinolin-6-yl)thiazol-2-yl)-1H-pyrazole-4-carboxamide], the IC50 was determined as 17 µM in [1]; 4 µM with Panc10.05-G12D; 6.3 µM at wild type K-Ras; 11 µM in assay [5]; 9 µM with Panc1-G12D; 10 µM with HCT116-G31D. The IC50 in assay [10] amounted to 9 µM; against K-Ras G12D, 3.4 µM; in assay [11] it was 6 µM. Moreover, the EC50 in assay [2] was 6 µM; in [3] it was above 25 µM; in [4], 9 µM; in assay [6], 2 µM; in assay [7], 2 µM; in [8], above 25 µM. The EC50 in [9] stood at 12 µM; in assay [12], 18 µM.
Take `COCCN1C(=O)CCc2cc(-c3csc(NC(=O)c4oc(C(C)C)nc4C)n3)ccc21` [Compound 111, 2-isopropyl-NA-(4-(1-(2-methoxyethyl)-2-oxo-1,2,3,4-tetrahydroquinolin-6-yl)thiazol-2-yl)-4-methyloxazole-5-carboxamide]: the IC50 in assay [1] came to 7 µM; in the assay on Panc10.05-G12D it was 0.852 µM; at wild type K-Ras, 3.9 µM; in assay [5] it was 2 µM; in the assay on Panc1-G12D, 2 µM; in the assay with HCT116-G31D, 24 µM. Moreover, the IC50 came to 4 µM in assay [10], 2.5 µM against K-Ras G12D and 7 µM in [11]. Further, the EC50 in assay [2] was 1.6 µM; in assay [3], above 25 µM; in assay [4], 12 µM; in [6], 1.4 µM; in assay [7], 0.767 µM; in [8] it was above 25 µM. For the same molecule, the EC50 in assay [9] amounted to 2 µM; in [12] it was 16 µM.
